Assay results as given in patent US12649750B2, “Macrocyclic compounds, compositions, and methods of using thereof” (Sionna Therapeutics Inc., priority 2022, dated 2026).

Experiments:
CFTR = molecular target: T1, CFTR (Homo sapiens, UniProt P13569, DEL508-508); assay: TECC24 AUC fold over DMSO @10 μM, CFTR-mediated transepithelial chloride transport in CF-HBE cells; format: cell-based; conditions: test agent AUC divided by DMSO vehicle AUC, primary CF-HBE cells, ΔF508 homozygous donor, 48 hours incubation
T1 construct: Primary human bronchial epithelial cells from a ΔF508 homozygous CF donor; host or cells: primary human bronchial epithelial cells (CF-HBE), ΔF508 homozygous donor
Method in brief: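 ΔF508-homozygous primary bronchial epithelial cells incubated 48 h at 36.5° C with compound (10 μM) in IL-13-containing medium, then TECC24 current-clamp recording in pH 7.4 Hepes saline with benzamil 10 μM, forskolin 10 μM, then CFTR inhibitor-172 20 μM. Equivalent Cl− current AUC between forskolin and inhibitor, expressed as fold over DMSO.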

NBD1 = molecular target: T2, NBD1 (Homo sapiens, UniProt P13569); assay: Aggregation analysis using differential static light scattering (DSLS), thermal stability of NBD1 (ΔTagg); format: binding; conditions: ΔTagg versus DMSO control, NBD1 0.2 mg/ml
T2 construct: Purified recombinant NBD1 was produced using previously described methods; made in house
Method in brief: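 Purified recombinant NBD1 at 0.2 mg/ml in 50 mM Tris-HCl, 150 mM NaCl, 5 mM MgCl2, 2 mM ATP, 2 mM DTT, pH 7.6, 1% glycerol, with compound, heated 1° C./min to 70° C. under light-scattering monitoring. Tagg taken at curve inflection; ΔTagg is compound Tagg minus mean DMSO-control Tagg, binned A (≤5° C.), B (>5-≤10° C.), C (>10-≤25° C.).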

T2 sequence (P13569 423-646 limits assumed): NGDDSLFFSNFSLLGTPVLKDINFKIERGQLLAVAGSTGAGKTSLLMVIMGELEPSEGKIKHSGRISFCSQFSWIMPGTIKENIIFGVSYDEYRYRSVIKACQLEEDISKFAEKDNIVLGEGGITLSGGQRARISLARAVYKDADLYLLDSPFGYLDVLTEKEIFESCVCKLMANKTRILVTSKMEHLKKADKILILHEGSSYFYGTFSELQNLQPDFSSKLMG
T1 sequence (P13569 with tags, fused parts or gaps DEL508-508): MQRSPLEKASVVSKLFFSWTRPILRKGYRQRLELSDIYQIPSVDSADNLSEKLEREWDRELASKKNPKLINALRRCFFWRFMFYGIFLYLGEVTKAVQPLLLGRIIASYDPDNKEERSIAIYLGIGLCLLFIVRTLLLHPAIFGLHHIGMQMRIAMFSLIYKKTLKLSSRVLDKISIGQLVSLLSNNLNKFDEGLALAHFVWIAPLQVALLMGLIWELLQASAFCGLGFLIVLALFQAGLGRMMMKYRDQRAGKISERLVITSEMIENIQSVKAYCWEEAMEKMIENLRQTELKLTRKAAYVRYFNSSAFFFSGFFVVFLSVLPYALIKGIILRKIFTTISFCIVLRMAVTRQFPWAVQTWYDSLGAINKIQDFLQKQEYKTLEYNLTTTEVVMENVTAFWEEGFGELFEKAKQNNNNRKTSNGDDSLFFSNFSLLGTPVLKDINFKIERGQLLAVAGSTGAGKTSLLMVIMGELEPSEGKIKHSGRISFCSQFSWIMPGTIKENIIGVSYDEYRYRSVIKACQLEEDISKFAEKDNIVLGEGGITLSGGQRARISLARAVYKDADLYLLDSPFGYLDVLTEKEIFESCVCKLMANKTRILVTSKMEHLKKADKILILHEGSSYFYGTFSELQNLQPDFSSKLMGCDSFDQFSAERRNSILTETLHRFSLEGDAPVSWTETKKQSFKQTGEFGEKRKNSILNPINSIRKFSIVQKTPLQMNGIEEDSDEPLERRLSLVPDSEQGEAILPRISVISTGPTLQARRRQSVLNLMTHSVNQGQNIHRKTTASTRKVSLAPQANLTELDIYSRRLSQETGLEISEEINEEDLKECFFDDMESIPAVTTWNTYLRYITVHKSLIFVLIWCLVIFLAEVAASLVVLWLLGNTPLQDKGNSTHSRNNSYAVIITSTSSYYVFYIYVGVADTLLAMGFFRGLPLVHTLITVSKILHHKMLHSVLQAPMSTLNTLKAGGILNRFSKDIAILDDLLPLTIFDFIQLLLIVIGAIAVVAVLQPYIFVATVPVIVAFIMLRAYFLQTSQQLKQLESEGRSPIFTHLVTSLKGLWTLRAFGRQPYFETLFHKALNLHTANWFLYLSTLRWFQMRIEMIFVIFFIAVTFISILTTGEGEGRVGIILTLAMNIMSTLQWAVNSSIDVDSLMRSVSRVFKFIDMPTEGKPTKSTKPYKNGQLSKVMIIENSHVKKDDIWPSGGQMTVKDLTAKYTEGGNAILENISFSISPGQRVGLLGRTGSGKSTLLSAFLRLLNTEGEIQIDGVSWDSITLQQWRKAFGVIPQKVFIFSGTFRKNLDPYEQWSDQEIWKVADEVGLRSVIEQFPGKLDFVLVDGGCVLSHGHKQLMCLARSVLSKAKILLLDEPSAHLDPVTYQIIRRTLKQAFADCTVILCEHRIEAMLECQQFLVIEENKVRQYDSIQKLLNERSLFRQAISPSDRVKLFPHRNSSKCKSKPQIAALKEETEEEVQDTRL

SMILES | TECC (AUC, 10 μM) (CFTR) | DSLS 3D (100 μM ΔT) (NBD1)
C[C@@H](Cc1cccc(C2(C)CCCC(C)(C)CS(=O)(=O)CCc3c(c(F)cc4[nH]ccc34)S(=O)(=O)c3ccc(F)c(c3)-c3nc2nn3C)n1)C(=O)O (single isomer, unassigned) [Compound 180A] | B (a value between 12-20 is marked “B”) | C (a value greater than 10 °C and less than or equal to 25 °C is marked “C”)
C[C@@H](Cc1cccc(C2(C)CCCC(C)(C)CS(=O)(=O)CCc3c(c(F)cc4[nH]ccc34)S(=O)(=O)c3ccc(F)c(c3)-c3nc2nn3C)n1)C(=O)O (single isomer, unassigned) [Compound 180B] | A (a TECC value less than 12 is marked “A”) | A (an ΔTagg value less than or equal to 5 °C is marked “A”)
C[C@H](Cc1cccc(C2(C)CCCC(C)(C)CS(=O)(=O)CCc3c(c(F)cc4[nH]ccc34)[S+]([O-])c3ccc(F)c(c3)-c3nc2nn3C)n1)C(=O)O (single isomer, unassigned) [Compound 181A] | A (a TECC value less than 12 is marked “A”) | B (a value above 5 °C and less than or equal to 10 °C is marked “B”)
C[C@H](Cc1cccc(C2(C)CCCC(C)(C)CS(=O)(=O)CCc3c(c(F)cc4[nH]ccc34)[S+]([O-])c3ccc(F)c(c3)-c3nc2nn3C)n1)C(=O)O (single isomer, unassigned) [Compound 181B] | A (a TECC value less than 12 is marked “A”) | A (an ΔTagg value less than or equal to 5 °C is marked “A”)
C[C@H](Cc1cccc(C2(C)CCCC(C)(C)CS(=O)(=O)CCc3c(c(F)cc4[nH]ccc34)[S+]([O-])c3ccc(F)c(c3)-c3nc2nn3C)n1)C(=O)O (single isomer, unassigned) [Compound 181C] | A (a TECC value less than 12 is marked “A”) | A (an ΔTagg value less than or equal to 5 °C is marked “A”)
C[C@H](Cc1cccc(C2(C)CCCC(C)(C)CS(=O)(=O)CCc3c(c(F)cc4[nH]ccc34)[S+]([O-])c3ccc(F)c(c3)-c3nc2nn3C)n1)C(=O)O (single isomer, unassigned) [Compound 181D] | A (a TECC value less than 12 is marked “A”) | C (a value greater than 10 °C and less than or equal to 25 °C is marked “C”)
C[C@H](Cc1cccc(C2(C)CCCC(C)(C)CS(=O)(=O)CCc3c(c(F)cc4[nH]ccc34)Oc3cc(ccn3)-c3nc2nn3C)c1)C(=O)O (single isomer, unassigned) [Compound 184] | A (a TECC value less than 12 is marked “A”) | B (a value above 5 °C and less than or equal to 10 °C is marked “B”)
C[C@@H](Cc1cccc(C2(C)CCCC(C)(C)CS(=O)(=O)CCc3c(c(F)cc4[nH]ccc34)Oc3ccc(F)c(c3)-c3nc2nn3C)c1)C(=O)NO (single isomer, unassigned) [Compound 185] | B (a value between 12-20 is marked “B”) | C (a value greater than 10 °C and less than or equal to 25 °C is marked “C”)
C[C@@H](Cc1cccc(C2(C)CCCC(C)(C)CS(=O)(=O)CCc3c(c(F)cc4[nH]ccc34)Oc3ccc(F)c(c3)-c3nc2nn3C)c1)C(=O)N(C)O (single isomer, unassigned) [Compound 187] | A (a TECC value less than 12 is marked “A”) | B (a value above 5 °C and less than or equal to 10 °C is marked “B”)
CCONC(=O)[C@@H](C)Cc1cccc(C2(C)CCCC(C)(C)CS(=O)(=O)CCc3c(c(F)cc4[nH]ccc34)Oc3ccc(F)c(c3)-c3nc2nn3C)c1 (single isomer, unassigned) [Compound 188] | B (a value between 12-20 is marked “B”) | B (a value above 5 °C and less than or equal to 10 °C is marked “B”)
CC(C)ONC(=O)[C@@H](C)Cc1cccc(C2(C)CCCC(C)(C)CS(=O)(=O)CCc3c(c(F)cc4[nH]ccc34)Oc3ccc(F)c(c3)-c3nc2nn3C)c1 (single isomer, unassigned) [Compound 189] | B (a value between 12-20 is marked “B”) | B (a value above 5 °C and less than or equal to 10 °C is marked “B”)
Cn1nc2nc1-c1cc(ccc1F)Oc1c(F)cc3[nH]ccc3c1CCS(=O)(=O)CC(C)(C)CCCC2(C)c1cccc(CC2CC(=O)N(O)C2=O)c1 (single isomer, unassigned) [Compound 195A, 3-[[3-(22,28-difluoro-3,6,10,10-tetramethyl-12,12-dioxo-24-oxa-12λ6-thia-3,4,19,30-tetrazapentacyclo[23.3.1.12,5.015,23.016,20]triaconta-1(29),2(30),4,15,17,20,22,25,27-nonaen-6-yl)phenyl]methyl]-1-hydroxy-pyrrolidine-2,5-dione] | C (a value between 20 and 80 is marked “C”) | C (a value greater than 10 °C and less than or equal to 25 °C is marked “C”)
Cn1nc2nc1-c1cc(ccc1F)Oc1c(F)cc3[nH]ccc3c1CCS(=O)(=O)CC(C)(C)CCCC2(C)c1cccc(CC2CC(=O)N(O)C2=O)c1 (single isomer, unassigned) [Compound 195B, 3-[[3-(22,28-difluoro-3,6,10,10-tetramethyl-12,12-dioxo-24-oxa-12λ6-thia-3,4,19,30-tetrazapentacyclo[23.3.1.12,5.015,23.016,20]triaconta-1(29),2(30),4,15,17,20,22,25,27-nonaen-6-yl)phenyl]methyl]-1-hydroxy-pyrrolidine-2,5-dione] | C (a value between 20 and 80 is marked “C”) | C (a value greater than 10 °C and less than or equal to 25 °C is marked “C”)
Cn1nc2nc1-c1cc(ccc1F)Oc1c(F)cc3[nH]ccc3c1CCS(=O)(=O)CC(C)(C)CCCC2(C)c1cccc(CC2CC(=O)NC2=O)c1 (single isomer, unassigned) [Compound 196A, 3-[[3-(22,28-difluoro-3,6,10,10-tetramethyl-12,12-dioxo-24-oxa-12λ6-thia-3,4,19,30-tetrazapentacyclo[23.3.1.12,5.015,23.016,20]triaconta-1(29),2(30),4,15,17,20,22,25,27-nonaen-6-yl)phenyl]methyl]pyrrolidine-2,5-dione] | A (a TECC value less than 12 is marked “A”) | C (a value greater than 10 °C and less than or equal to 25 °C is marked “C”)
Cn1nc2nc1-c1cc(ccc1F)Oc1c(F)cc3[nH]ccc3c1CCS(=O)(=O)CC(C)(C)CCCC2(C)c1cccc(CC2CC(=O)NC2=O)c1 (single isomer, unassigned) [Compound 196B, 3-[[3-(22,28-difluoro-3,6,10,10-tetramethyl-12,12-dioxo-24-oxa-12λ6-thia-3,4,19,30-tetrazapentacyclo[23.3.1.12,5.015,23.016,20]triaconta-1(29),2(30),4,15,17,20,22,25,27-nonaen-6-yl)phenyl]methyl]pyrrolidine-2,5-dione] | A (a TECC value less than 12 is marked “A”) | A (an ΔTagg value less than or equal to 5 °C is marked “A”)
